# Assay results from patent publication US8247211B2, “Glycopeptide antibiotics” (American Cyanamid Company, priority 2001, dated 2012).
# How the values were obtained:
# Assay in all cases: In vitro antibacterial evaluation: minimum inhibitory concentration (MIC), broth dilution method
# Format in all cases: cell-based
# Enterococcus sp. = details: broth dilution, 5×10^5 CFU/mL, 18 hours at 35° C.
# Protocol: (§1) The minimum inhibitory concentration (MIC), the lowest concentration of the antibiotic which inhibits growth of the test organism, is determined by the broth dilution method using Muller-Hinton II […] (Baltimore Biological Laboratories) following the recommendations of the National Committee for Clinical Laboratory Standards [Methods for dilution antimicrobial susceptibility tests for bacteria that grow aerobically, approved standard M7-A2, National Committee for Clinical Laboratory Standards, Villanova, Pa].
# (§2) An inoculum level of 5×10^5 CFU/mL, and a range of antibiotic concentrations (64-0.06 μg/mL) is used. […] The test organisms include a spectrum of Gram-positive bacteria comprised of Staphylococcus sp., Streptococcus sp. and Enterococcus sp. These organisms include recent clinical isolates that are resistant to methicillin, penicillin and/or vancomycin.
# Escherichia coli = details: 5×10^5 CFU/mL, 18 hours at 35° C.
# Protocol: as §1, §2
# Staphylococcus sp. = details: for MIC Staphylococcus aureus (ATCC 29213): strain ATCC 29213; for MIC Staphylococcus aureus (GC 1131): strain GC 1131; for MIC Staphylococcus aureus (GC 3051): strain GC 3051; for MIC Staphylococcus aureus (GC 3053): strain GC 3053; for MIC Staphylococcus aureus (GC 4541): strain GC 4541; for MIC Staphylococcus aureus (GC 4542): strain GC 4542; for MIC Staphylococcus aureus (GC 4544): strain GC 4544; for MIC Staphylococcus aureus (GC 4545): strain GC 4545
# Protocol: as §1, §2
# Streptococcus sp. = details: broth dilution, 5×10^5 CFU/mL, 18 hours at 35° C.
# Protocol: as §1, §2
# [1] = broth dilution, 5×10^5 CFU/mL, 18 hours at 35° C.
# [2] = broth dilution, 18 hours at 35° C.
# [3] = strain GC 4543, broth dilution, 18 hours at 35° C.
# [4] = strain GC 4546, broth dilution, 18 hours at 35° C.
# [5] = strain GC 4547, broth dilution, 18 hours at 35° C.
# [6] = strain GC 4548, broth dilution, 18 hours at 35° C.
# [7] = strain GC 4549, broth dilution, 18 hours at 35° C.
# [8] = strain GC 4551, broth dilution, 18 hours at 35° C.
compound,measurement,setting,value
CC(c1ccccc1)C1NC(=O)CNC(=O)C(CO)NC(=O)C(C(O)C2CNC(=N)N2C2OC(CO)C(O)C(O)C2O)NC(=O)C(C(O)C2CNC(=N)N2)NC(=O)C(Cc2ccc(OC3OC(CO)C(OC4OC5COC(C67CC8CC(CC(C8)C6)C7)OC5C(O)C4O)C(O)C3O)cc2)NC1=O (centres unmarked) [Example 127],MIC Enterococccus avium (GC 4558),Enterococcus sp.,2 µg/mL
same,MIC Enterococccus faecalis (ATCC 29212),Enterococcus sp.,2 µg/mL
same,MIC Enterococccus faecalis (GC 2691),Enterococcus sp.,4 µg/mL
same,MIC Enterococccus faecalis (GC 3059),Enterococcus sp.,2 µg/mL
same,MIC Enterococccus faecalis (GC 4552),Enterococcus sp.,4 µg/mL
same,MIC Enterococccus faecalis (GC 4553),Enterococcus sp.,4 µg/mL
same,MIC Enterococccus faecalis (GC 4554),Enterococcus sp.,4 µg/mL
same,MIC Enterococccus faecalis (GC 6189),Enterococcus sp.,2 µg/mL
same,MIC Enterococccus faecium (GC 2243),Enterococcus sp.,4 µg/mL
same,MIC Enterococccus faecium (GC 4556),Enterococcus sp.,4 µg/mL
same,MIC Enterococccus faecium (GC 4557),Enterococcus sp.,4 µg/mL
same,MIC Enterococcus faecalis (GC 2242),Enterococcus sp.,4 µg/mL
same,MIC Escherichia coli (ATCC 25922),Escherichia coli,64 µg/mL
same,MIC Escherichia coli (GC 4559),Escherichia coli,64 µg/mL
same,MIC Escherichia coli (GC 4560),Escherichia coli,4 µg/mL
same,MIC Coagulase Negative Staphylococcus (GC 4547),Staphylococcus sp.; [1],4 µg/mL
same,MIC Coagulase Negative Staphylococcus (GC 4548),Staphylococcus sp.; [1],2 µg/mL
same,MIC Coagulase Negative Staphylococcus (GC 4549),Staphylococcus sp.; [1],1 µg/mL
same,MIC Coagulase Negative Staphylococcus (GC 4551),Staphylococcus sp.; [1],2 µg/mL
same,MIC Staphylococcus aureus-SMITH (GC 4543),Staphylococcus sp.; [1],2 µg/mL
same,MIC Staphylococcus haemolyticus (GC 4546),Staphylococcus sp.; [1],2 µg/mL
same,MIC Staphylococcus aureus (ATCC 29213),Staphylococcus sp.,2 µg/mL
same,MIC Staphylococcus aureus (ATCC 29213),Staphylococcus sp.; [2],2 µg/mL
same,MIC Staphylococcus aureus (GC 1131),Staphylococcus sp.,4 µg/mL
same,MIC Staphylococcus aureus (GC 1131),Staphylococcus sp.; [2],4 µg/mL
same,MIC Staphylococcus aureus (GC 3051),Staphylococcus sp.,2 µg/mL
same,MIC Staphylococcus aureus (GC 3051),Staphylococcus sp.; [2],2 µg/mL
same,MIC Staphylococcus aureus (GC 3053),Staphylococcus sp.,2 µg/mL
same,MIC Staphylococcus aureus (GC 3053),Staphylococcus sp.; [2],2 µg/mL
same,MIC Staphylococcus aureus (GC 4541),Staphylococcus sp.,4 µg/mL
same,MIC Staphylococcus aureus (GC 4541),Staphylococcus sp.; [2],4 µg/mL
same,MIC Staphylococcus aureus (GC 4542),Staphylococcus sp.,2 µg/mL
same,MIC Staphylococcus aureus (GC 4542),Staphylococcus sp.; [2],2 µg/mL
same,MIC Staphylococcus aureus-SMITH (GC 4543),Staphylococcus sp.; [3],2 µg/mL
same,MIC Staphylococcus aureus (GC 4544),Staphylococcus sp.,4 µg/mL
same,MIC Staphylococcus aureus (GC 4544),Staphylococcus sp.; [2],4 µg/mL
same,MIC Staphylococcus aureus (GC 4545),Staphylococcus sp.,2 µg/mL
same,MIC Staphylococcus aureus (GC 4545),Staphylococcus sp.; [2],2 µg/mL
same,MIC Staphylococcus haemolyticus (GC 4546),Staphylococcus sp.; [4],2 µg/mL
same,MIC Coagulase Negative Staphylococcus (GC 4547),Staphylococcus sp.; [5],4 µg/mL
same,MIC Coagulase Negative Staphylococcus (GC 4548),Staphylococcus sp.; [6],2 µg/mL
same,MIC Coagulase Negative Staphylococcus (GC 4549),Staphylococcus sp.; [7],1 µg/mL
same,MIC Coagulase Negative Staphylococcus (GC 4551),Staphylococcus sp.; [8],2 µg/mL
same,MIC Streptococcus agalactiae (GC 4564),Streptococcus sp.,<0.12 µg/mL
same,MIC Streptococcus pneumoniae (GC 1894),Streptococcus sp.,<0.12 µg/mL
same,MIC Streptococcus pneumoniae (GC 4565),Streptococcus sp.,<0.12 µg/mL
same,MIC Streptococcus pneumonine (ATCC 6301),Streptococcus sp.,<0.12 µg/mL
same,MIC Streptococcus pyogenes (GC 4563),Streptococcus sp.,0.25 µg/mL
CC(c1ccccc1)C1NC(=O)CNC(=O)C(CO)NC(=O)C(C(O)C2CNC(=N)N2C2OC(CO)C(O)C(O)C2O)NC(=O)C(C(O)C2CNC(=N)N2)NC(=O)C(Cc2ccc(OC3OC(CO)C(OC4OC(CO)C(O)C5OC(CC67CC8CC(CC(C8)C6)C7)OC45)C(O)C3O)cc2)NC1=O (centres unmarked) [Example 128],MIC Enterococccus avium (GC 4558),Enterococcus sp.,4 µg/mL
same,MIC Enterococccus faecalis (ATCC 29212),Enterococcus sp.,4 µg/mL
same,MIC Enterococccus faecalis (GC 2691),Enterococcus sp.,4 µg/mL
same,MIC Enterococccus faecalis (GC 3059),Enterococcus sp.,4 µg/mL
same,MIC Enterococccus faecalis (GC 4552),Enterococcus sp.,4 µg/mL
same,MIC Enterococccus faecalis (GC 4553),Enterococcus sp.,4 µg/mL
same,MIC Enterococccus faecalis (GC 4554),Enterococcus sp.,4 µg/mL
same,MIC Enterococccus faecalis (GC 6189),Enterococcus sp.,4 µg/mL
same,MIC Enterococccus faecium (GC 2243),Enterococcus sp.,4 µg/mL
same,MIC Enterococccus faecium (GC 4556),Enterococcus sp.,4 µg/mL
same,MIC Enterococccus faecium (GC 4557),Enterococcus sp.,4 µg/mL
same,MIC Enterococcus faecalis (GC 2242),Enterococcus sp.,4 µg/mL
same,MIC Escherichia coli (ATCC 25922),Escherichia coli,32 µg/mL
same,MIC Escherichia coli (GC 4559),Escherichia coli,32 µg/mL
same,MIC Escherichia coli (GC 4560),Escherichia coli,4 µg/mL
same,MIC Coagulase Negative Staphylococcus (GC 4547),Staphylococcus sp.; [1],4 µg/mL
same,MIC Coagulase Negative Staphylococcus (GC 4548),Staphylococcus sp.; [1],2 µg/mL
same,MIC Coagulase Negative Staphylococcus (GC 4549),Staphylococcus sp.; [1],2 µg/mL
same,MIC Coagulase Negative Staphylococcus (GC 4551),Staphylococcus sp.; [1],4 µg/mL
same,MIC Coagulase Negative Staphylococcus (GC 6257),Staphylococcus sp.; [1],2 µg/mL
same,MIC Staphylococcus aureus-SMITH (GC 4543),Staphylococcus sp.; [1],2 µg/mL
same,MIC Staphylococcus haemolyticus (GC 4546),Staphylococcus sp.; [1],2 µg/mL
same,MIC Staphylococcus aureus (ATCC 29213),Staphylococcus sp.,2 µg/mL
same,MIC Staphylococcus aureus (ATCC 29213),Staphylococcus sp.; [2],2 µg/mL
same,MIC Staphylococcus aureus (GC 1131),Staphylococcus sp.,4 µg/mL
same,MIC Staphylococcus aureus (GC 1131),Staphylococcus sp.; [2],4 µg/mL
same,MIC Staphylococcus aureus (GC 3051),Staphylococcus sp.,2 µg/mL
same,MIC Staphylococcus aureus (GC 3051),Staphylococcus sp.; [2],2 µg/mL
same,MIC Staphylococcus aureus (GC 3053),Staphylococcus sp.,2 µg/mL
same,MIC Staphylococcus aureus (GC 3053),Staphylococcus sp.; [2],2 µg/mL
same,MIC Staphylococcus aureus (GC 4541),Staphylococcus sp.,2 µg/mL
same,MIC Staphylococcus aureus (GC 4541),Staphylococcus sp.; [2],2 µg/mL
same,MIC Staphylococcus aureus (GC 4542),Staphylococcus sp.,2 µg/mL
same,MIC Staphylococcus aureus (GC 4542),Staphylococcus sp.; [2],2 µg/mL
same,MIC Staphylococcus aureus-SMITH (GC 4543),Staphylococcus sp.; [3],2 µg/mL
same,MIC Staphylococcus aureus (GC 4544),Staphylococcus sp.,4 µg/mL
same,MIC Staphylococcus aureus (GC 4544),Staphylococcus sp.; [2],4 µg/mL
same,MIC Staphylococcus aureus (GC 4545),Staphylococcus sp.,2 µg/mL
same,MIC Staphylococcus aureus (GC 4545),Staphylococcus sp.; [2],2 µg/mL
same,MIC Staphylococcus haemolyticus (GC 4546),Staphylococcus sp.; [4],2 µg/mL
same,MIC Coagulase Negative Staphylococcus (GC 4547),Staphylococcus sp.; [5],4 µg/mL
same,MIC Coagulase Negative Staphylococcus (GC 4548),Staphylococcus sp.; [6],2 µg/mL
same,MIC Coagulase Negative Staphylococcus (GC 4549),Staphylococcus sp.; [7],2 µg/mL
same,MIC Coagulase Negative Staphylococcus (GC 4551),Staphylococcus sp.; [8],4 µg/mL
same,MIC Coagulase Negative Staphylococcus (GC 6257),"Staphylococcus sp.; strain GC 6257, broth dilution, 18 hours at 35° C.",2 µg/mL
same,MIC Streptococcus agalactiae (GC 4564),Streptococcus sp.,0.25 µg/mL
same,MIC Streptococcus pneumoniae (GC 1894),Streptococcus sp.,<0.06 µg/mL
same,MIC Streptococcus pneumoniae (GC 4565),Streptococcus sp.,0.12 µg/mL
same,MIC Streptococcus pneumonine (ATCC 6301),Streptococcus sp.,0.25 µg/mL
same,MIC Streptococcus pyogenes (GC 4563),Streptococcus sp.,0.5 µg/mL
